Results on three compounds are retold here after US6130324A, “Amphipathic oligonucleotides and polynucleotides having potent antiviral activity” (University of Utah Research Foundation, priority 1999, dated 2000).

One may read the CC50 as the concentration giving 50% cytotoxicity. A higher CC50 goes with lower toxicity to the cells.

The subject of series [1] is HIV strain RF. In words: Inhibition of cytopathic effect of HIV strain RF in CEM-SS cells. It is filed as cell-based, human immunodeficiency virus. The protocol:
(§1) Assays for anti-HIV activity of poly(1-propargylinosineic) prepared according to the procedure of Examples 1-4 were conducted by Dr. Robert Buckheit, Jr. of the Southern Research Institute with strains of HIV-1 and HIV-2 in various cell lines and with cell free preparations of reverse transcriptase as previously described, Broom et al. (1995), J. Med. Chem. 38:3253-3257.
Background: Protection from cytopathic effect is a common read-out in antiviral testing.

Series [2] deals with HIV strain IIIB. In words: Inhibition of cytopathic effect of HIV strain IIIB in CEM-SS cells. It is filed as cell-based, human immunodeficiency virus. The following applies: polynucleotide concentration based on average molecular weight of 100,000, read-out: EC50 against cytopathic effect, virus IIIB. The protocol: as §1
Series [3] deals with HIV strain SK1. In words: Inhibition of cytopathic effect of HIV strain SK1 in CEM-SS cells. It is filed as cell-based, human immunodeficiency virus. The protocol: as §1
For series [4], the system named is HIV strain ROD. Put plainly: Inhibition of cytopathic effect of HIV strain ROD in CEM-SS cells. It is filed as cell-based, human immunodeficiency virus. As to the method: as §1
Series [5] relates to reverse transcriptase (RT). Put plainly: Inhibition of reverse transcriptase in a cell free supernate. It is filed as biochemical, human immunodeficiency virus. To be noted: concentrations based on average molecular weight of 100,000. The protocol:
as §1

Series [6] deals with HCMV strain AD-169. In words: Anti-HCMV activity, AD-169 strain in MRC-5 cell line. It counts as cell-based, human cytomegalovirus. To be noted: HCMV AD-169 in MRC-5 cell line; for EC50: Human betaherpesvirus 5, AD169, MRC5, read-out: ED50 (50% effective dose). The protocol:
(§2) Assays of anti-HCMV activity were conducted by Drs. R. Sidwell and J. Huffman at Utah State University with the AD-169 strain in the MRC-5 cell line as described in Huffman et al. (1994), Nucleosides and Nucleotides 33:607-613.

Series [7] deals with MRC-5 cell line. Put plainly: Cytotoxicity in the anti-HCMV assay (MRC-5 cell line). It counts as cell-based. The following applies: MRC-5 cell line. As to the method:
as §2

Test in series [8]: as above
The following applies: human, mrc-5 cells. It counts as cell-based. As to the method:
as §2

[9] abbreviates: polynucleotide concentration based on average molecular weight of 100,000 daltons.

Where two headings read alike, the source gives them in different places.

On to `Nc1ccn([C@H]2CC[C@@H](CO)O2)c(=O)n1` [ddC, reference compound], for which the EC50 in series [1] (Human immunodeficiency virus 1, polynucleotide concentration based on average molecular weight of 100,000, read-out: EC50 against cytopathic effect, virus RF) worked out at 39 nM; in series [2] (Human immunodeficiency virus 1, IIIB), 69.3 nM; in series [3] (Human immunodeficiency virus 1, polynucleotide concentration based on average molecular weight of 100,000, read-out: EC50 against cytopathic effect, virus SK1), 25.4 nM; in series [4] (Human immunodeficiency virus 1, polynucleotide concentration based on average molecular weight of 100,000, read-out: EC50 against cytopathic effect, virus ROD), 62.1 nM.
poly(1-propargylinosinic acid): the EC50 in series [1] (Table 2, RF strain, concentrations based on average molecular weight of 100,000, read-out: CEM-SS (RF), EC50) came to 131 nM; in series [1] (polynucleotide concentration based on average molecular weight of 100,000, read-out: EC50 against cytopathic effect, virus RF), 131 nM; in series [2], 263 nM; in series [3] (polynucleotide concentration based on average molecular weight of 100,000, read-out: EC50 against cytopathic effect, virus SK1), 44.4 nM; in series [4] (polynucleotide concentration based on average molecular weight of 100,000, read-out: EC50 against cytopathic effect, virus ROD) it was 57.9 nM; in series [5] it was 223 nM. In addition, in series [6], the “ED50 (50% effective dose)” value is 1.9 µg/mL. The “ED50 (50% effective dose), molar” value in series [6] (setting [9]) was found to be 19 nM. For the same compound, the “CD50 (50% cytotoxic dose)” value in series [7] came to 316 µg/mL. In series [7] (concentration based on average molecular weight of 100,000 daltons), the “CD50 (50% cytotoxic dose), molar” value amounted to 3.16 µM.
For the compound `Nc1nc(O)c2ncn(COC(CO)CO)c2n1` [Ganciclovir, ganciclovir], in series [6], the “TI = CD50 / ED50” value is more than 417 and the EC50 turned out to be 2.4 µg/mL. The EC50 in series [6] (setting [9]) was found to be 9400 nM. The compound further registered a 50% cytotoxic concentration (CC50) in series [8] of more than 1000 µg/mL.
